Laboratory results taken from US20230181611A1, “REELIN/VEGF-C PRODUCTION/ACTIVATION PROMOTER AND SKIN EXTERNAL COMPOSITION USING THE SAME” (AMOREPACIFIC CORPORATION, priority 2021, published 2023).

Columns and labels:
[1] = system: Human dermal lymphatic endothelial cells (HDLEC); assay: Cytotoxicity analysis (WST-8 cell viability); type: cell-based; conditions: 0 to 200 ppm (μg/ml), 24 hours and 72 hours, FIG. 1
Method: Human dermal lymphatic endothelial cells (HDLEC, PromoCell, Germany) were newly cultured in 96 well dishes for one day and then treated with a compound represented by Chemical Formula E-1 (Biogenics Company) at each concentration of 0 ppm (μg/ml) to 200 ppm (μg/ml). The cells were cultured for 24 hours and 72 hours, and then measured with respect to absorbance at 450 nm by using a QuantiMax WST-8 Cell viability assay kit to check cell viability, and the results are shown in FIG. 1.

reelin = assay: Reelin cytokine analysis (ELISA); type: cell-based, human; conditions: HDLEC, 10 ppm, 48 hours, DMSO control = 100%, FIG. 2
Method: After culturing human dermal lymphatic endothelial cells in 6 well plates for 24 hours, while the cells treated with DMSO were used as a control (reference, 100%), the cells were treated with the compound represented by Chemical Formula E-1 at a concentration of 10 ppm and cultured for 48 hours and then measured with respect to production and activity of reelin through a reelin cytokine analysis by using human ELISA Kit (Mybiosource, U.S.A.) according to a manual, and the results are shown in FIG. 2.

VEGF-C = VEGF-C cytokine analysis (ELISA); type: cell-based, human; conditions: HDLEC, 1 ppm and 10 ppm, 48 hours, DMSO control = 100%, FIG. 3
Method: After culturing human dermal lymphatic endothelial cells in 6 well plates for 24 hours, while the cells treated with DMSO as a control (reference, 100%), the cells were treated with the compound represented by Chemical Formula E-1 at each concentration of 1 ppm and 10 ppm and cultured for 48 hours and then measured with respect to production and activity of VEGF-C through a VEGF-C cytokine analysis by using a VEGFC human ELISA Kit (ThermoFisher, U.S.A.) according to a manual, and the results are shown in FIG. 3.

What does the source list for `CC1(C)[C@@H](O[C@H]2OC(C(=O)O)[C@@H](O)C(O)C2O[C@@H]2OC(C(=O)O)[C@@H](O)C(O)C2O)CC[C@]2(C)[C@H]3C(=O)C=C4[C@@H]5C[C@@](C)(C(=O)O)CC[C@]5(C)CC[C@@]4(C)[C@]3(C)CC[C@@H]12` (stereo partly drawn) [Chemical Formula E-1]?
cytotoxicity (cell viability) [1]: no cytotoxicity; production and activity of reelin compared with the control (reelin): further improve production and activity of reelin; production and activity of VEGF-C compared with the control (VEGF-C): further improve production and activity of VEGF-C
